Earlier results in patent US20070196413A1, “Surfactant enhanced quick release pesticide granules” (priority 2003, published 2007).
Read-outs that look alike come from different tables or passages of the source.

CNC(=O)CSP(=S)(OC)OC [Cygon, dimethoate]
Time to lose 50 percent of pest control power (mixed in water of pH 9): 48 min | Time to lose 50 percent of pest control power (pH of 6): 720 min
